Measured values reported in the supplement of paper PMC10307832.

What was measured:
Test in all cases: relative viability (nuclei count vs DMSO), 5 days (fraction); higher = more cells survive
[1] = compound: CC(C)C[C@H](NC(=O)[C@H](CCc1ccccc1)NC(=O)CN1CCOCC1)C(=O)N[C@@H](Cc1ccccc1)C(=O)N[C@@H](CC(C)C)C(=O)[C@@]1(C)CO1 [Carfilzomib] + CC(=O)Nc1cccc(-n2c(=O)n(C3CC3)c(=O)c3c(Nc4ccc(I)cc4F)n(C)c(=O)c(C)c32)c1 [Trametinib] (partner 0.02 µM)
Procedure, shortened: (§1)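 Lung cancer cell lines in 1536-well plates were dosed by pin tool the day after seeding, either with one drug alone or with a fixed anchor-drug dose plus five library-drug doses (not always all listed) in √10 steps. After 5 days, cells were fixed and their nuclei stained in one step (final 0.05% Triton X-100, 1% formaldehyde, 1 ug/ml Hoechst), then counted on 4× images. Relative viability is the nuclei count in treated wells divided by that in vehicle wells. Values are medians of duplicate plates.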

[2] = compound: CC(C)C[C@H](NC(=O)[C@H](CCc1ccccc1)NC(=O)CN1CCOCC1)C(=O)N[C@@H](Cc1ccccc1)C(=O)N[C@@H](CC(C)C)C(=O)[C@@]1(C)CO1 [Carfilzomib] + O=C(CCCCCCC(=O)Nc1ccccc1)NO [Vorinostat] (partner 1 µM)
Procedure, shortened: as §1

[3] = compound: C[C@@H](Oc1cc(-c2cnn(C3CCNCC3)c2)cnc1N)c1c(Cl)ccc(F)c1Cl [Crizotinib] + Cc1cc(Nc2cc(N3CCN(C)CC3)nc(Sc3ccc(NC(=O)C4CC4)cc3)n2)n[nH]1 [Tozasertib] (partner 0.1 µM)
Procedure, shortened: as §1

[4] = compound: O=C(c1cc(Cc2n[nH]c(=O)c3ccccc23)ccc1F)N1CCN(C(=O)C2CC2)CC1 [Olaparib] + N=C(N)NC(=N)NCCc1ccccc1 [Phenformin] (partner 250 µM)
Procedure, shortened: as §1

| Cell Line | relative viability ([1]; first compound 0.001 µM) | relative viability ([1]; first compound 0.003162 µM) | relative viability ([1]; first compound 0.01 µM) | relative viability ([1]; first compound 0.03162 µM) | relative viability ([1]; first compound 0.1 µM) | relative viability ([2]; first compound 0.001 µM) | relative viability ([2]; first compound 0.003162 µM) | relative viability ([2]; first compound 0.01 µM) | relative viability ([2]; first compound 0.03162 µM) | relative viability ([2]; first compound 0.1 µM) | relative viability ([3]; first compound 0.01 µM) | relative viability ([3]; first compound 0.03162 µM) | relative viability ([3]; first compound 0.1 µM) | relative viability ([3]; first compound 1 µM) | relative viability ([4]; first compound 0.08 µM) | relative viability ([4]; first compound 0.253 µM) | relative viability ([4]; first compound 2.53 µM) | relative viability ([4]; first compound 8 µM) | relative viability ([3]; first compound 0.3162 µM) |
| --- | --- | --- | --- | --- | --- | --- | --- | --- | --- | --- | --- | --- | --- | --- | --- | --- | --- | --- | --- |
| HARA | 0.66 | 0.693 | 0.627 | 0.339 | 0.109 | 0.507 | 0.561 | 0.501 | 0.436 | 0.0635 | 0.106 | 0.079 | 0.1 | 0.116 | 0.584 | 0.398 | 0.36 | 0.36 | – |
| LC-2-ad | 0.9 | 0.97 | 0.881 | 0.917 | 0.471 | 0.811 | 0.755 | 0.75 | 0.44 | 0.245 | 0.425 | 0.454 | 0.431 | 0.47 | 0.75 | 0.508 | 0.533 | 0.607 | 0.423 |
| UMC-11 | 0.32 | 0.739 | 0.657 | 0.703 | 0.322 | 0.413 | 0.395 | 0.394 | 0.308 | 0.115 | 0.185 | 0.184 | 0.192 | 0.208 | 0.36 | 0.31 | 0.294 | 0.229 | – |
| EMC-BAC-2 | 0.895 | 0.962 | 1.04 | 0.791 | 0.277 | 0.434 | 0.587 | 0.524 | 0.247 | 0.126 | 0.326 | 0.281 | 0.304 | 0.275 | 0.558 | 0.504 | 0.558 | 0.437 | 0.285 |
| COR-L 105 | 0.451 | 0.458 | 0.416 | 0.35 | 0.328 | 0.95 | 1 | 0.805 | 0.381 | 0.283 | 0.331 | 0.361 | 0.367 | 0.344 | 0.535 | 0.42 | 0.479 | 0.418 | 0.326 |
| NCI-H596 | 0.785 | 0.804 | 0.952 | 0.69 | 0.205 | 0.585 | 0.612 | 0.448 | 0.173 | 0.159 | 0.887 | 0.804 | 0.924 | – | 0.76 | 0.732 | 0.653 | 0.66 | 0.861 |
| NCI-H2347 | 0.269 | 0.23 | 0.298 | 0.292 | 0.262 | 0.712 | 0.53 | 0.432 | 0.352 | 0.303 | 0.462 | 0.564 | 0.615 | 0.422 | 0.458 | 0.339 | 0.313 | 0.347 | 0.527 |
| HCC-78 | 0.672 | 0.849 | 0.69 | 0.597 | 0.255 | 0.433 | 0.467 | 0.461 | 0.303 | 0.283 | – | 0.47 | 0.419 | 0.442 | 0.72 | 0.66 | 0.756 | 0.714 | 0.391 |
| NCI-H1650 | 0.487 | 0.537 | 0.52 | 0.103 | 0.1 | 0.65 | 0.475 | 0.19 | 0.152 | 0.127 | 0.407 | 0.35 | 0.433 | 0.415 | 0.446 | 0.475 | 0.405 | 0.537 | 0.356 |
